Laboratory results reported in US12201628B2, “Neuronal modulation” (priority 2013, dated 2025).

Key:
[1] = test system: DREADDs (hM3D(Gq)) expressing VTA dopaminergic neurons; assay: C-fos staining of VTA neurons after CNO injection; assay type: in vivo, mice; settings: CNO 2.5 mg/kg, 90 min after injection
Description: Mice were anesthetized using a ketamine/xylazine mixture (ketamine 80 mg/kg; xylazine 15-20 mg/kg) diluted in sterile saline solution (NaCl 0.9%), before being fixed in the stereotactic frame (Stoelting, IL, US). The AAV8 virus, purchased from the vector core at the University of North Carolina, was used to induce Cre-dependent DREADD expression (AAV8-hSyn-DIO-hM3D(Gq)-mCherry), by injection of 0.7 μl into the right VTA region (anterior-posterior −3.2 mm; media-lateral 0.48 mm; dorsal-ventral 4.7 mm (mouse coordinates)). […] 30 days post surgery passed in order to assure the expression of DREADDs. […]
Validation of the virus injection site and evaluation of the DREADDs expression were performed by immunohistochemistry. […] The tissues were stained for TH with mouse anti-TH (1:200; Millipore) and the proportion of the DREADDs expressing cells (mCherry+) out of the total TH+ in the VTA was evaluated (1800 cells). […] The proportion of the c-fos+ cell nuclei from the total number of DREADDs-expressing cells was calculated. […] The quantification of double-positive cells was performed using Imaris Software.
Efficiency of the viral infection in the dopaminergic (TH+) VTA neurons was 58±4% (FIG. 6B). […] Neuronal activation was determined by C-fos staining, an immediate early activation marker. […]

[2] = test system: immune cell clusters (CD45+ cells); assay: CyTOF mass cytometry of blood and spleen with Citrus analysis; assay type: in vivo, mice; settings: 24 h after CNO, VTA-activated vs control
Description: Two weeks after completion of the behavioral testing, mice were injected intraperitoneally with CNO and anesthetized 24 hours thereafter. Spleens and blood samples were collected. Spleens were dissociated into single-cell suspensions in 2% fetal bovine serum (Biological Industries, IL) and mesh filtered to remove clumps and debris. Blood samples were collected into heparin-coated sterile test tubes. Both the blood and the spleen cell suspensions were lysed with red blood cell lysis buffer (BD Biosciences, NJ, US). Cells ([…]) from each tissue were stained, for 1 hour at room temperature, with a mixture of metal tagged antibodies recognizing CD45, CCR3, CD80, GR1, CD86, CD19, CD4, CD45R, CD152, CD138, CD8, NK1.1, CD27, CD206, CD25, CD14, CD11c, CD49b, CD34, CD69, CD123, TCRβ, CCR7, CD28, CD115, CD133, TLR4, CD117, CD79b, CD62L, CD44, CD45RA, CD1d, IAIE, CD5, and CD11b. All antibodies were conjugated using the MAXPAR reagent (Fluidigm Inc.), with Rhodium and Iridium intercalators used to identify live/dead cells. Cells were washed twice with PBS, fixed in 1.6% formaldehyde (Sigma-Aldrich, St. Louis, MO) for 1 hour, washed again in ultrapure H2O and subjected to CyTOF mass cytometry analysis on a CyTOF I machine, with cell events acquired at approximately 500 events per second. In addition, each sample was spiked with internal metal isotope bead standards, which then was used for sample normalization by CyTOF software (Fluidigm). Acquired data was then uploaded to a Cytobank web server (Cytobank Inc.) for data processing and gating out of dead cells and normalization beads. Data was transformed using an arc sin h (X/5) transformation.
Differences in cell subset abundance and functional marker expression between VTA activated and control mice, were identified using the Citrus algorithm, a clustering and differential detection algorithm especially suited for high dimensional cytometry data (2). Twenty FCS files of normalized, live cell/no beads samples (Five VTA activated mice spleens, five VTA activated mice blood samples, 5 control mice spleen and five control mice blood) were each randomly sampled for 40,000 single cell events each. Briefly, Citrus performs three steps to identify cell subsets and differences between groups: First, collected single cell events are pooled together and iteratively hierarchically clustered using a subset of the measured channels for clustering (See Table 1 for a list of 23 clustering markers), yielding overlapping clusters with the ultimate cluster being one encompassing all sampled events. Second, the pooled dataset is split back into its constituting samples and the relative abundance of cells in each cluster is computed, as well as the median values of each functional marker (see Table 1 for a list of functional markers). Only cell clusters whose total abundance in one or more of the measured samples was greater than 1% of the total measured sample was retained for downstream analysis, yielding a total of 151 clusters. Third, the Citrus implementation of the SAM algorithm was applied, to identify, separately, differences in cell subset abundances and medians between VTA activated and control mouse samples at a predetermined FDR of 5%. Beyond this, an additional criteria for calling differences was employed, by performing a Mann-Whitney non-parametric test of significance on each cluster found to be different between VTA activated and control and requiring that it meet a p-value <0.05 criteria. Manual inspection of Citrus output was used to identify the closest known gross-cell type, matching the 23 combination clustering marker panel. A similar procedure analysis procedure was performed for 6-OHDA samples versus control. […]

Structure (SMILES): C[N+]1([O-])CCN(C2=Nc3cc(Cl)ccc3Nc3ccccc32)CC1 [CNO, clozapine-N-oxide]
- C-fos expression in DREADDs-infected cells ([1]; VTA-activated (hM3D(Gq)) mice): 42±0.5%
- C-fos expression in virus infected cells ([1]; control mice (sham mCherry virus without DREADDs)): 3±1%
- abundance of B-cell subsets ([2]; blood and spleen): decreased in abundance
- CD1d levels on APC subsets (granulocytes, NK cells, monocyte/macrophages) ([2]; blood): reduced
- CD25, CD69 and CD206 expression ([2]; spleen): upregulation
- CD80 and CD86 expression ([2]; spleen): Upregulation
- CD1d expression ([2]; spleen): downregulation
